From PubChem BioAssay (NCI) come the findings set out here.

Among the test systems are HCT-116 colon; HOP-62 NSCLC; LOX IMVI melanoma; MALME-3M melanoma; NCI-H460 lung; NCI-H522 lung; OVCAR-3 ovarian; SF-268 CNS; SK-MEL-5 melanoma; BT-549 breast.
Common to all, as to test: NCI-60 cell line screen, 48 h

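48-hour exposure; five concentrations; linearly interpolated endpoints. GI50: concentration for 50% inhibition of growth. At the TGI there is no net growth.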 Bounds are passed on as bounds.

`CCCCCCCCCCCC(=O)OC(COC(N)=O)COc1ccc(Cl)cc1` (stereo unspecified): the TGI with HCT-116 colon is 30 µM; with HOP-62 NSCLC it was greater than 100 µM; in the test with LOX IMVI melanoma, 55 µM; with MALME-3M melanoma, 48.3 µM; in the test with NCI-H460 lung, 47.4 µM; in the test with NCI-H522 lung, 31.5 µM. Further, the TGI is 31.6 µM in the test with OVCAR-3 ovarian, 42.5 µM in the test with SF-268 CNS and 32.8 µM with SK-MEL-5 melanoma.
For the compound `COc1cc(Cn2c(SCC(=O)Nc3ccc(Cl)cc3)nc3ccccc3c2=O)cc(OC)c1OC`, the GI50 in the test on BT-549 breast was 6.42 µM; with HCT-116 colon, 4040 nM; with HOP-62 NSCLC it was 3100 nM; with LOX IMVI melanoma, 13.5 µM; in the test with NCI-H460 lung, 10.4 µM; in the test on NCI-H522 lung it was 4.89 µM. Further, the GI50 with OVCAR-3 ovarian is 7.86 µM; in the test with SF-268 CNS, 6.61 µM; with SK-MEL-5 melanoma, 6.38 µM. Besides, the TGI was 23.8 µM in the test with BT-549 breast; 14.9 µM in the test on HCT-116 colon; 14.5 µM in the test with HOP-62 NSCLC; greater than 100 µM with LOX IMVI melanoma; 59.1 µM with NCI-H460 lung; 21.9 µM with NCI-H522 lung. In addition, the TGI in the test with OVCAR-3 ovarian worked out at 31 µM; with SF-268 CNS, 24.8 µM; with SK-MEL-5 melanoma, 21.2 µM.
Consider `NCC1(N2CCOCC2)C2CCCC21CNc1ccccc1` (stereo unspecified), for which the TGI in the test on HCT-116 colon, in the test on HOP-62 NSCLC, in the test with LOX IMVI melanoma, in the test with MALME-3M melanoma, with NCI-H460 lung and in the test with NCI-H522 lung was greater than 100 µM throughout. Further, the TGI with OVCAR-3 ovarian, with SF-268 CNS and with SK-MEL-5 melanoma was greater than 100 µM throughout.
In the case of `NC(=O)c1ncn(Cc2ccccc2)c1CNC(N)=S`, the TGI with LOX IMVI melanoma, with NCI-H460 lung, with OVCAR-3 ovarian, in the test with SF-268 CNS and in the test on SK-MEL-5 melanoma was greater than 100 µM throughout.
As to `O=C(/C=C/c1ccc(O)cc1)c1cc(Cl)ccc1O`, the TGI in the test on HCT-116 colon was 58 µM; in the test on HOP-62 NSCLC it was greater than 100 µM; in the test with LOX IMVI melanoma, 56.2 µM; with MALME-3M melanoma it was greater than 100 µM; with NCI-H460 lung it was greater than 100 µM; with NCI-H522 lung, 36.2 µM. For the same compound, the TGI in the test on OVCAR-3 ovarian, with SF-268 CNS and in the test on SK-MEL-5 melanoma was greater than 100 µM in each case.
`O=C1c2ccccc2C(=O)c2c1ccc1c2N=C(c2ccc(Br)cc2)CC(c2cccc3ccccc23)N1` (stereo unspecified): the TGI in the test on HOP-62 NSCLC, with LOX IMVI melanoma, in the test on MALME-3M melanoma, with NCI-H460 lung, in the test with NCI-H522 lung and in the test on OVCAR-3 ovarian was greater than 100 µM in each case. Further, the TGI in the test on SF-268 CNS and in the test on SK-MEL-5 melanoma was greater than 100 µM in each case.
Take `Cc1cc(C#Cc2ccccc2)ccc1-n1c(/C=C/c2cc(O)ccc2O)nc2ccccc2c1=O`: the GI50 in the test with HCT-116 colon was 1460 nM; in the test on HOP-62 NSCLC it was 1710 nM; in the test with LOX IMVI melanoma it was 1.37 µM; in the test with MALME-3M melanoma it was 1500 nM; in the test on NCI-H460 lung, 1.57 µM; with NCI-H522 lung it was 1.29 µM. Further, the GI50 was 1.49 µM in the test on OVCAR-3 ovarian, 1.31 µM in the test with SF-268 CNS and 1.35 µM with SK-MEL-5 melanoma. Besides, the TGI in the test with HCT-116 colon is 2.77 µM; with HOP-62 NSCLC it was 3.79 µM; in the test with LOX IMVI melanoma, 2.65 µM; in the test with MALME-3M melanoma, 3.72 µM; with NCI-H460 lung, 2.91 µM; with NCI-H522 lung, 2.56 µM. Further, the TGI was found to be 2.81 µM with OVCAR-3 ovarian, 3.07 µM in the test with SF-268 CNS and 2.64 µM with SK-MEL-5 melanoma.
Consider `Cn1cnc([N+](=O)[O-])c1Sc1nc2ccc([N+](=O)[O-])cc2[nH]1`, for which the TGI is 57.8 µM in the test on HCT-116 colon; greater than 100 µM in the test with HOP-62 NSCLC; 60.1 µM in the test with LOX IMVI melanoma; greater than 100 µM in the test with NCI-H460 lung; greater than 100 µM in the test on OVCAR-3 ovarian; 53.1 µM in the test on SF-268 CNS. Besides, in the test with SK-MEL-5 melanoma, the TGI was determined as 30.6 µM.
`CC1CC(c2ccc(Cl)c(Cl)c2)=Nc2ccccc2S1` (stereo unspecified): the TGI in the test with HCT-116 colon, in the test with HOP-62 NSCLC, in the test with LOX IMVI melanoma, in the test with MALME-3M melanoma, in the test on NCI-H460 lung and with NCI-H522 lung was greater than 100 µM each time. Besides, the TGI in the test with OVCAR-3 ovarian, in the test with SF-268 CNS and with SK-MEL-5 melanoma was greater than 100 µM in each case.
For `CC1(C)CC(N2CCN(C3CC(C)(C)NC(C)(C)C3)CC2)CC(C)(C)N1`, the TGI in the test with HCT-116 colon, in the test on HOP-62 NSCLC, in the test with LOX IMVI melanoma, with NCI-H460 lung, in the test with NCI-H522 lung and with OVCAR-3 ovarian was greater than 100 µM throughout. Moreover, the TGI with SF-268 CNS and in the test with SK-MEL-5 melanoma was greater than 100 µM throughout.
With `N#Cc1cn(-c2c3ccccc3nc3ccccc23)c(=O)[nH]c1=O`, the TGI in the test with HCT-116 colon was greater than 100 µM; in the test with LOX IMVI melanoma it was 21.2 µM; in the test with MALME-3M melanoma, 24.3 µM; in the test on NCI-H522 lung, 18.3 µM; in the test with OVCAR-3 ovarian, 35.6 µM; with SF-268 CNS it was 29.7 µM.
For `Cc1ccc2nc3c(C)cc(=O)cc-3sc2c1`, the TGI stood at 34.2 µM in the test on HCT-116 colon; 58.8 µM in the test with HOP-62 NSCLC; 81.1 µM in the test with MALME-3M melanoma; 60.6 µM in the test with NCI-H460 lung; 45.1 µM with NCI-H522 lung; 55.2 µM in the test on OVCAR-3 ovarian. For the same compound, the TGI in the test on SF-268 CNS was greater than 100 µM; in the test with SK-MEL-5 melanoma, 29 µM.
For the compound `O=C(O)c1cn(C2CC2)c2cc(N3CCN(Cc4ccc5ccccc5c4O)CC3)c(F)cc2c1=O`, the GI50 in the test on HOP-62 NSCLC was 2450 nM; with LOX IMVI melanoma, 3.13 µM; with SF-268 CNS, 8.13 µM; in the test on SK-MEL-5 melanoma it was 3.78 µM. The TGI in the test with HOP-62 NSCLC is 9.36 µM; in the test on LOX IMVI melanoma, greater than 100 µM; in the test on SF-268 CNS it was greater than 100 µM; in the test on SK-MEL-5 melanoma, greater than 100 µM.
Turning to `NC(=O)c1cc([N+](=O)[O-])cc([N+](=O)[O-])c1`, the TGI with HCT-116 colon, in the test with HOP-62 NSCLC, in the test with LOX IMVI melanoma, with MALME-3M melanoma, with NCI-H460 lung and in the test on NCI-H522 lung was greater than 100 µM throughout. Moreover, the TGI in the test with OVCAR-3 ovarian, in the test with SF-268 CNS and with SK-MEL-5 melanoma was greater than 100 µM each time.
